Experimental data: ChEMBL document CHEMBL4196147 (J Nat Prod, 2018)

What was measured:
L02 = test: Cytotoxicity against human LO2 cells assessed as decrease in cell viability after 48 hrs by MTT assay; format: ADME, cell-based; details: L02, 48 h
HCT-116 = test: Cytotoxicity against human HCT116 cells assessed as decrease in cell viability after 48 hrs by MTT assay; format: functional, cell-based; details: HCT-116, 48 h
[1] = Cytotoxicity against human Huh7.5 cells assessed as decrease in cell viability after 48 hrs by MTT assay; format: functional, cell-based; details: Huh7.5, 48 h
K562 = test: Cytotoxicity against human K562 cells assessed as decrease in cell viability after 48 hrs by MTT assay; format: functional, cell-based; details: K562, 48 h

SMILES: CC(=O)N[C@@H]1C[C@H]2O[C@@](C)([C@@H]1O)n1c3ccccc3c3c4c(c5c6ccccc6n2c5c31)C(=O)NC4
- IC50 (L02): 24.2 µM
- IC50 (HCT-116): 1 µM
- IC50 [1]: 2.1 µM
- IC50 (K562): 5.2 µM

SMILES: C[C@]12O[C@H](C[C@@H](N)[C@H]1O)n1c3ccccc3c3c4c(c5c6ccccc6n2c5c31)CNC4=O
- IC50 (L02): 2.7 µM
- IC50 (HCT-116): 0.2 µM
- IC50 [1]: 0.4 µM
- IC50 (K562): 0.9 µM

SMILES: C[C@@H]1O[C@@H](n2c3ccccc3c3c4c(c5c6ccccc6[nH]c5c32)CNC4=O)[C@H](O)[C@H](O)[C@H]1O
- IC50 (L02): 73.8 µM
- IC50 (HCT-116): 9 µM
- IC50 [1]: 46 µM
- IC50 (K562): > 100 µM

SMILES: CC(=O)N[C@@H]1C[C@H]2O[C@@](C)([C@@H]1O)n1c3ccc(O)cc3c3c4c(c5c6ccccc6n2c5c31)C(=O)NC4
- IC50 (L02): > 100 µM
- IC50 (HCT-116): 2.7 µM
- IC50 [1]: > 100 µM
- IC50 (K562): 8.8 µM

SMILES: CC(=O)c1cccn1[C@@H]1C[C@H]2O[C@@](C)([C@@H]1O)n1c3ccccc3c3c4c(c5c6ccccc6n2c5c31)C(=O)NC4
- IC50 (L02): > 100 µM
- IC50 (HCT-116): 3.9 µM
- IC50 [1]: 2.7 µM
- IC50 (K562): 10.5 µM

SMILES: C[C@@H]1O[C@@H](n2c3ccccc3c3c4c(c5c6ccccc6[nH]c5c32)CNC4=O)C[C@@H](N)[C@H]1O
- IC50 (L02): 5.8 µM
- IC50 (HCT-116): 5.1 µM
- IC50 [1]: 7 µM
- IC50 (K562): 7.7 µM

SMILES: CC(=O)N[C@@H]1C[C@H](n2c3ccccc3c3c4c(c5c6ccccc6[nH]c5c32)CNC4=O)O[C@@H](C)[C@@H]1O
- IC50 (L02): 41.1 µM
- IC50 (HCT-116): > 100 µM
- IC50 [1]: 35.2 µM
- IC50 (K562): 32.4 µM
